inhibition, Activity and IC50 data for 22 compounds are collected here from ChEMBL document CHEMBL4680350, “Novel penta-1,4-diene-3-one derivatives containing quinazoline and oxime ether fragments: Design, synthesis and bioactivity” (Bioorg Med Chem, 2021).

Broadly, the inhibition is the percentage by which the read-out fell short of the control. In general, pIC50 refers to the IC50 on a negative log10 scale, so that one unit is a factor of ten.

pIC50: −log10 of the molar value. Activity calls are given as the source filed them. The calls are words filed in the database; no cut-off is given here.

The test system of assay [1] is SMMC-7721. Nature of the assay: Anticancer activity against human SMMC-7721 cells assessed as inhibition of cell proliferation at 1 uM measured after 72 hrs by MTT assay. The class given is functional. (Tetrazolium dyes change colour on reduction, which living cells bring about.)
Assay [2] relates to SMMC-7721. Nature of the assay: Anticancer activity against human SMMC-7721 cells assessed as inhibition of cell proliferation at 10 uM measured after 72 hrs by MTT assay. Type of assay: functional.
Assay [3] relates to SMMC-7721. Nature of the assay: Cytotoxicity against human SMMC-7721 cells assessed as change in cell morphology at 1 uM incubated for 24 hrs. Type of assay: functional, cell-based.
Assay [4] deals with SMMC-7721. Nature of the assay: Cytotoxicity against human SMMC-7721 cells assessed as change in cell morphology at 10 uM incubated for 48 hrs. Type of assay: functional, cell-based.
In assay [5] the test system is SMMC-7721. Nature of the assay: Induction of apoptosis in human SMMC-7721 cells assessed as increase in caspase 3 level upto 20 uM incubated for 48 hrs by Western blot analysis. The class given is functional, cell-based. The note with it: dose microM <=20, time 48.0 hrs. Background: Immunoblotting shows a protein as a band on a membrane.
Assay [6] relates to SMMC-7721. Kind of assay: Induction of cell cycle arrest in human SMMC-7721 cells assessed as accumulation of cells at G2/M measured after 24 hrs by flow cytometry. The class given is functional, cell-based.
Assay [7] concerns SMMC-7721. Kind of assay: Induction of apoptosis in human SMMC-7721 cells as late apoptotic cells at 20 uM measured after 48 hrs by annexin V-FITC/PI based flow cytometric analysis relative to control. Type of assay: functional. (In general: In flow cytometry, cells or beads pass a laser one at a time.)
The subject of assay [8] is SMMC-7721. Nature of the assay: Antimigratory activity against human SMMC-7721 cells assessed as inhibition of cell migration at 10 uM measured after 12 hrs by cell scratch assay. Type of assay: functional, cell-based.
Assay [9] concerns SMMC-7721. Kind of assay: Antimigratory activity against human SMMC-7721 cells assessed as inhibition of cell migration measured after 12 hrs by cell scratch assay. The class given is functional, cell-based.
For assay [10], the system named is SMMC-7721. Nature of the assay: Induction of apoptosis in human SMMC-7721 cells assessed as increase in PARP-1 level t 1 to 20 uM incubated for 48 hrs by Western blot analysis. Type of assay: functional, cell-based. As to conditions: dose 1-20 µM.
For assay [11], the system named is SMMC-7721. Nature of the assay: Anticancer activity against human SMMC-7721 cells assessed as inhibition of cell proliferation measured after 72 hrs by MTT assay. As to conditions: SMMC-7721, 72 h. Type of assay: functional, cell-based.
Assay [12] deals with SMMC-7721. Nature of the assay: Induction of apoptosis in human SMMC-7721 cells assessed as increase in PARP-1 level t 1 to 5 uM incubated for 48 hrs by Western blot analysis. Type of assay: functional, cell-based. As to conditions: dose 1-5 µM.
In assay [13] the test system is SMMC-7721. Nature of the assay: Induction of apoptosis in human SMMC-7721 cells assessed as decrease in PARP-1 level t 10 to 20 uM incubated for 48 hrs by Western blot analysis. Type of assay: functional, cell-based. As to conditions: dose 10-20 µM.
Assay [14] concerns SMMC-7721. Kind of assay: Induction of apoptosis in human SMMC-7721 cells as late apoptotic cells at 5 uM measured after 48 hrs by annexin V-FITC/PI based flow cytometric analysis relative to control. Type of assay: functional.
The subject of assay [15] is SMMC-7721. Nature of the assay: Induction of apoptosis in human SMMC-7721 cells at 5 uM measured after 48 hrs by annexin V-FITC/PI based flow cytometric analysis relative to control. Type of assay: functional.
The subject of assay [16] is SMMC-7721. Kind of assay: Induction of apoptosis in human SMMC-7721 cells at 1 uM measured after 48 hrs by annexin V-FITC/PI based flow cytometric analysis relative to control. The class given is functional.
Assay [17] concerns SMMC-7721. Nature of the assay: Induction of cell cycle arrest in human SMMC-7721 cells assessed as accumulation of cells at […] measured after 24 hrs by flow cytometry. Type of assay: functional, cell-based.

For the compound `Clc1ccc(COc2ccccc2/C=C/C(/C=C/c2ccccn2)=N/Oc2ncnc3cc(Cl)ccc23)cc1`, in [1], the inhibition at 1 µM amounted to 94%. In assay [2], the inhibition at 10 µM was 94.8%.
As to `Clc1ccccc1COc1ccc(/C=C/C(/C=C/c2ccccn2)=N/Oc2ncnc3ccccc23)cc1`, in assay [1], the inhibition at 1 µM is 10.1%. Also, the inhibition at 10 µM in [2] turned out to be 96.9%.
Regarding `Clc1ccc(COc2ccc(/C=C/C(/C=C/c3cccs3)=N/Oc3ncnc4ccccc34)cc2)cc1`, the inhibition at 1 µM in assay [1] worked out at 89.3%. Moreover, in assay [2], the inhibition at 10 µM came to 97.5%.
In the case of `Cc1cccc(COc2ccc(/C=C/C(/C=C/c3ccccn3)=N/Oc3ncnc4cc(Cl)ccc34)cc2)c1`, the inhibition at 1 µM in assay [1] was determined as 78.6%. Further, the inhibition at 10 µM in assay [2] amounted to 95.6%.
For the compound `Clc1ccc2c(O/N=C(\C=C\c3ccccn3)/C=C/c3ccccc3OCc3ccccc3Cl)ncnc2c1`, the inhibition at 1 µM in assay [1] amounted to 94.8%. The inhibition at 10 µM in [2] is 94.5%.
With `Clc1ccccc1COc1ccccc1/C=C/C(/C=C/c1ccccn1)=N/Oc1ncnc2ccccc12`, the inhibition at 1 µM in assay [1] came out at 95.7%. Further, the inhibition at 10 µM in assay [2] stood at 96%.
As for `Cc1cccc2ncnc(O/N=C(/C=C/c3ccc(OCc4ccccc4Cl)cc3)\C=C\c3ccccn3)c12`, the inhibition at 1 µM in [1] was found to be 77%. Besides, the inhibition at 10 µM in assay [2] was determined as 84.7%.
As to `Clc1ccc(COc2ccc(/C=C/C(/C=C/c3ccccn3)=N/Oc3ncnc4ccccc34)cc2)c(Cl)c1`, in [2], the inhibition at 10 µM was 89.6%.
`Fc1ccccc1COc1ccccc1/C=C/C(/C=C/c1ccccn1)=N/Oc1ncnc2cc(Cl)ccc12`: the inhibition at 1 µM in [1] turned out to be 94.2%. Besides, the inhibition at 10 µM in assay [2] was found to be 94.8%. Also, the result in assay [3] and in [4] was Active.
Regarding `Clc1ccc(COc2ccc(/C=C/C(/C=C/c3ccccn3)=N/Oc3ncnc4cc(Cl)ccc34)cc2)cc1`, the result in assay [5], in assay [6], in assay [3], in [4] and in [10] was Active. Moreover, the Activity in assay [7] was determined as 88%. Besides, the result in [8] and in assay [9] was inactive. In [1], the inhibition at 1 µM was determined as 67.4%. Further, in assay [2], the inhibition at 10 µM turned out to be 88.1%. Further, in assay [11], the pIC50 was 6.20.
Turning to `Cc1cccc(COc2ccc(/C=C/C(/C=C/c3ccccn3)=N/Oc3ncnc4ccccc34)cc2)c1`, the outcome in assay [12], in assay [13], in assay [5], in [6], in assay [3] and in assay [4] was Active. In addition, the Activity was 99.4% in assay [14], 99.9% in assay [15] and 23% in assay [16]. The result in assay [8] and in assay [9] was inactive. In [1], the inhibition at 1 µM stood at 69.2%. In assay [2], the inhibition at 10 µM is 97.5%. Also, the pIC50 in [11] was 6.19.
Take `Clc1ccc(COc2ccc(/C=C/C(/C=C/c3ccccn3)=N/Oc3ncnc4ccccc34)cc2)cc1`: the inhibition at 1 µM in [1] was found to be 91.2%. Besides, the inhibition at 10 µM in assay [2] was 94.4%.
For the compound `Clc1ccc(COc2ccccc2/C=C/C(/C=C/c2ccccn2)=N/Oc2ncnc3ccccc23)c(Cl)c1`, the outcome in assay [5], in assay [17] and in assay [10] was Active. Besides, the outcome in assay [8] and in [9] was inactive. In addition, the inhibition at 1 µM in assay [1] turned out to be 33.3%. Moreover, in assay [2], the inhibition at 10 µM was 87.5%. Also, the negative-log IC50 (pIC50) in assay [11] was 5.07.
Take `Nc1ccn([C@@H]2O[C@H](CO)[C@@H](O)C2(F)F)c(=O)n1` [GEMCITABINE]: the inhibition at 1 µM in assay [1] was 38.5%. Moreover, the inhibition at 10 µM in [2] worked out at 61.5%. Further, the pIC50 in assay [11] is 5.85.
Take `Clc1ccc2c(O/N=C(/C=C/c3ccc(OCc4ccccc4Cl)cc3)\C=C\c3ccccn3)ncnc2c1`: the inhibition at 1 µM in assay [1] came to 18.1%. Moreover, the inhibition at 10 µM in [2] turned out to be 84.7%.
The matching figures for `Cc1cccc2ncnc(O/N=C(\C=C\c3ccccn3)/C=C/c3ccccc3OCc3ccc(Cl)cc3Cl)c12`: 90.8% and 93.9%.
The matching figures for `Fc1ccccc1COc1ccc(/C=C/C(/C=C/c2ccccn2)=N/Oc2ncnc3cc(Cl)ccc23)cc1`: 81.1% and 91.2%.
As for `Cc1cccc2ncnc(O/N=C(\C=C\c3ccccn3)/C=C/c3ccccc3OCc3ccccc3Cl)c12`, the inhibition at 1 µM in assay [1] amounted to 86.8%. In addition, the inhibition at 10 µM in assay [2] amounted to 95.7%.
In the case of `Clc1ccc(COc2ccc(/C=C/C(/C=C/c3ccccn3)=N/Oc3ncnc4cc(Cl)ccc34)cc2)c(Cl)c1`, the inhibition at 10 µM in assay [2] came out at 23.6%.
With `Cc1cccc(COc2ccc(/C=C/C(/C=C/c3ccccn3)=N/Oc3ncnc4cccc(C)c34)cc2)c1`, the inhibition at 1 µM in assay [1] amounted to 93.4%. For the same compound, the inhibition at 10 µM in assay [2] worked out at 97%.
With `Clc1ccc(COc2ccccc2/C=C/C(/C=C/c2ccccn2)=N/Oc2ncnc3cc(Cl)ccc23)c(Cl)c1`, the result in [5] and in assay [6] was Active. Also, the result in [8] and in [9] was inactive. Moreover, the inhibition at 1 µM in assay [1] was determined as 23.6%. Further, the inhibition at 10 µM in assay [2] was 91.8%. Also, the negative logarithm of the IC50 (pIC50) in assay [11] is 4.98.
As to `Cc1cccc2ncnc(O/N=C(\C=C\c3ccccn3)/C=C/c3ccccc3OCc3ccc(Cl)cc3)c12`, in assay [1], the inhibition at 1 µM was 93.4%. In addition, the inhibition at 10 µM in assay [2] came to 94.5%.
